Measurements reported in ChEMBL document CHEMBL3217612, “Progress on lamellarins” (Medchemcomm, 2011).

Tests used:
[1] = test system: HeLa; assay: Cytotoxicity against human HeLa cells after 48 hrs by XTT assay; type: functional, cell-based
[2] = Cytotoxicity against human HCC-S102 cells after 48 hrs by XTT assay; type: functional, cell-based; settings: HCC-S102, 48 h
[3] = test system: KB; assay: Cytotoxicity against human KB cells after 48 hrs by XTT assay; type: functional, cell-based
[4] = Cytotoxicity against human HuCCa1 cells after 48 hrs by XTT assay; type: functional, cell-based; settings: HuCC-A1, 48 h
[5] = test system: MRC5; assay: Cytotoxicity against human MRC5 cells after 48 hrs by XTT assay; type: cell-based; settings: MRC5, 48 h
[6] = test system: HL-60; assay: Cytotoxicity against human HL60 cells after 48 hrs by XTT assay; type: functional, cell-based; settings: HL-60, 48 h
[7] = test system: MDA-MB-231; assay: Cytotoxicity against human MDA-MB-231 cells after 48 hrs by XTT assay; type: functional, cell-based; settings: MDA-MB-231, 48 h
[8] = test system: HepG2; assay: Cytotoxicity against human HepG2 cells after 48 hrs by XTT assay; type: functional, cell-based; settings: HepG2, 48 h
[9] = test system: H69AR; assay: Cytotoxicity against human H69AR cells after 48 hrs by XTT assay; type: functional, cell-based
[10] = test system: T47D; assay: Cytotoxicity against human T47D cells after 48 hrs by XTT assay; type: functional, cell-based
[11] = test system: A549; assay: Cytotoxicity against human A549 cells after 48 hrs by XTT assay; type: functional, cell-based; settings: A549, 48 h
[12] = test system: P388; assay: Cytotoxicity against mouse P388 cells after 48 hrs by XTT assay; type: functional, cell-based; settings: P388, 48 h
[13] = Cytotoxicity against human MOLT3 cells after 48 hrs by XTT assay; type: functional, cell-based; settings: MOLT-3, 48 h

SMILES | IC50 [1] [nM] | IC50 [2] [nM] | IC50 [3] [nM] | IC50 [4] [nM] | IC50 [5] [nM] | IC50 [6] [nM] | IC50 [7] [nM] | IC50 [8] [nM] | IC50 [9] [nM] | IC50 [10] [nM] | IC50 [11] [nM] | IC50 [12] [nM] | IC50 [13] [nM]
COc1ccc(-c2c3c4cc(OC)c(O)cc4oc(=O)c3n3ccc4cc(O)c(OC)cc4c23)cc1O | 40 | 2300 | 60 | 8 | > 100000 | 40 | 600 | 20 | 60 | 0.6 | 40 | 80 | 
COc1cc(-c2c3c4cc(OC)c(O)cc4[nH]c(=O)c3n3ccc4cc(O)c(OC)cc4c23)ccc1O |  |  |  | 120 |  |  |  | 130 |  |  | 740 |  | 30
COc1cc2c(cc1O)oc(=O)c1c2c(-c2ccc(OC)c(OC)c2)c2c3cc(OC)c(O)cc3ccn21 | 80 | 2100 | 80 | 6 | > 97400 | 40 | 400 | 10 | 300 | 0.1 | 40 | 80 | 
COc1cc(-c2c3c4cc(OC)c(O)cc4oc(=O)c3n3ccc4c(O)c(OC)c(OC)cc4c23)ccc1O | 300 | 1900 | 200 | 60 | 13400 | 60 | 100 | 20 | 300 | 9 | 40 | 100 | 
COc1ccc(-c2c3c4cc(OC)c(O)cc4oc(=O)c3n3ccc4c(O)c(OC)c(OC)cc4c23)cc1O | 90 | 1600 | 80 | 40 | 10100 | 200 | 80 | 200 | 300 | 6 | 300 | 300 | 
COc1cc2c(cc1O)oc(=O)c1c2c(-c2ccc(OC)c(OC)c2)c2c3cc(OC)c(OC)c(O)c3ccn21 | 300 | 2100 | 300 | 70 | 25800 | 100 | 300 | 100 | 2300 | 6 | 300 | 300 | 
COc1cc(-c2c3c4cc(OC)c(O)cc4oc(=O)c3n3ccc4cc(O)c(OC)cc4c23)ccc1O [LAMELLARIN D] | 60 | 3200 | 40 | 80 | 9200 | 40 | 400 | 20 | 400 | 0.08 | 60 | 100 | 49
